Experimental data as given in patent publication US9938245B2 (THE TRUSTEES OF COLUMBIA UNIVERSITY IN THE CITY OF NEW YORK, priority 2014, dated 2018).
pIC50: −log10 of the molar value.

Legend:
HT1080 = assay: Concentration-dependent growth inhibition (alamar blue), HT1080; type: cell-based, human; details: 2 days
Procedure: Assay plates were prepared by seeding either BJ-derived cell lines or HT-1080 cells at 1,500 cells per well concentration in 36 μL growth medium. Cells in the assay plates were treated with compounds by transferring 4 μL volume from the compound plate. The final concentration of compound was typically 30 μM to 0.9 nM in this 16-point, 2-fold dilution series. Assay plates were returned to the culture incubator and maintained for 2 days before adding alamar blue. […] Plates were incubated further for 16 hours to allow reduction of alamar blue, which results in the generation of red fluorescence. The fluorescence intensity was determined using a Victor 3 plate reader (Perkin Elmer) with a 535 nm excitation filter and a 590 nm emission filter.
Percent growth inhibition (% GI) was calculated from the following formula using the alamar blue fluorescence intensity values. % GI=100*(1−(X−N)/(P−N)) X, cells treated with lethal compound; N, no cells—growth media only; P, no lethal compound—cells only.
The concentration-dependent curves were generated using Prism software. Percent growth inhibition, measured using alamar blue is shown. Error bars indicate one standard deviation of triplicate data.
The results are shown in FIG. 17 and in Table 7 below.

system xc− = target: T1, system xc− (Homo sapiens, UniProt Q9UPY5); assay: Glutamate release assay (system xc− activity); details: read-out: IC50 glutamate release; CCF-STTG1 human astrocytoma cells, 2 hour incubation
T1 sequence (Q9UPY5 1-501): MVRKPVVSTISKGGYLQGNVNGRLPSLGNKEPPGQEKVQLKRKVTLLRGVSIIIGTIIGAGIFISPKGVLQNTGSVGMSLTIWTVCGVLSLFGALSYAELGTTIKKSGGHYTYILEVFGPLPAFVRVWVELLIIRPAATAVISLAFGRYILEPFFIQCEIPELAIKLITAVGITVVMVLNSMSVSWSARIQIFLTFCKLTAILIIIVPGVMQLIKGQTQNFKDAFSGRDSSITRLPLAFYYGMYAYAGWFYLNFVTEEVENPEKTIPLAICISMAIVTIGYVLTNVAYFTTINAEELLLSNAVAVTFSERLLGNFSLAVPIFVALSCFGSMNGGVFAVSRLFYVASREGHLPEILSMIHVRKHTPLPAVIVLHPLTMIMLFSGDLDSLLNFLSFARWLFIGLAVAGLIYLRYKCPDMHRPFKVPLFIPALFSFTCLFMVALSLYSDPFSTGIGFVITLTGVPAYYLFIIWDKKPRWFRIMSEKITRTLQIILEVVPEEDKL
T1 sequence (P08195 1-529 partner): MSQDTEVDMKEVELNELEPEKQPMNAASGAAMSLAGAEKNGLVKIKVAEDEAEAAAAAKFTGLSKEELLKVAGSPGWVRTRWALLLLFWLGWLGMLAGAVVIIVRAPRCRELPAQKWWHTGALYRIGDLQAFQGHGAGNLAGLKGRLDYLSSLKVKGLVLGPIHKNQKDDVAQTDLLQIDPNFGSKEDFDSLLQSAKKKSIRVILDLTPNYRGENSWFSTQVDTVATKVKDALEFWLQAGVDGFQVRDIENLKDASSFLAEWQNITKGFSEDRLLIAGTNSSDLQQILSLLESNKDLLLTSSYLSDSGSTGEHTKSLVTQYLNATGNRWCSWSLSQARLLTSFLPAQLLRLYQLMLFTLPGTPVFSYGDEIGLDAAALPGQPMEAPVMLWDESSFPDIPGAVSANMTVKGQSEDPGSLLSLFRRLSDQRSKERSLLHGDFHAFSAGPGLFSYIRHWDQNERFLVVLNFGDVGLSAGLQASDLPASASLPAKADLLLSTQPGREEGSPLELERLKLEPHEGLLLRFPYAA

BJeLR = assay: Concentration-dependent growth inhibition (alamar blue), isogenic BJ cell lines; type: cell-based, human
HT-1080 cells = assay: Modulatory profiling with lethal molecules and cell death modulators; type: cell-based, human
[1] = mouse
[2] = test system: BJeH, BJeHLT, BJeLR, and DRD; assay: RSL testing in 4 BJ-derived cell lines; type: cell-based, human
HT-1080 tumor = HT-1080 tumor formation, mouse xenograft model; type: in vivo, athymic nude mice; details: PE 40 mg/kg SC then 30 mg/kg tail vein; erastin SC
Procedure: The images show representative tumors in live mice from each treatment group.
Athymic nude mice (8 weeks, Charles River) were injected with 4 million HT-1080 cells subcutaneously (SC). […] Two days later, the SC injection was repeated. Three days later, […] of vehicle or 30 mg/kg PE were administered to the mice through a tail vein. The tail vein injection was repeated three times more, once every other day, before the final tumor size was measured in both groups.
Instead, erastin was injected through the SC route using the same schedule as PE until the tumor size was measured.

For `CC(C)Oc1ccc(CN2CCNCC2)cc1-n1c(CN2CCN(C(=O)COc3ccc(Cl)cc3)CC2)nc2ccccc2c1=O` [PE, piperazine erastin], the pIC50 (HT1080) was 5.92, the pIC50 (system xc−) was 6.10 and the “Selectivity (IC50BJeH/IC50BJeLR)” value (BJeLR) was 3. For the same compound, the pIC50 (BJeLR; 2 days, alamar blue) was 6.52, the “form of cell death (modulatory profile)” value (HT-1080 cells) was “induced a similar form of cell death as erastin” and the “Half-life in liver microsomes” value [1] was 55 min. The “RSL phenotype (selective lethality in oncogenic-RAS cells)” value [2] was “retained the RSL phenotype” and the “preventing HT-1080 tumor formation” value (HT-1080 tumor) was “improved efficacy over erastinin (ERA)”.
